Experiment [1] has as its target T1, G12V-mutant human KRAS (amino acid residues 1-188) (Homo sapiens, UniProt P01116, G12V).
T1 construct: G12V-mutant human KRAS (amino acid residues 1-188) with FLAG tag was purified from E. coli; made in house; host or cells: E. coli
The experiment can be described thus: KRAS Binding Competition Assay (AlphaScreen; biotinylated KRpep-2d analogue), G12V. The following applies: geometric mean, read-out: KRAS GMean IC50 (uM) MUTATION: G12V. For orientation: In Alpha technology, singlet oxygen from a donor bead excites a nearby acceptor bead.

The target in experiment [2] is T2, G12D-mutant human KRAS (amino acid residues 1-188) (Homo sapiens, UniProt P01116, G12D).
T2 construct: G12D or G12C-mutant human KRAS (amino acid residues 1-188) with FLAG tag; made in house; host or cells: E. coli
The experiment can be described thus: KRAS Binding Disruption Assay (AlphaScreen; biotinylated KRpep-2d analogue or RAF1-RBD), G12D. The following applies: KRAS G12D; geometric mean; read-out: KRAS GMean IC50 (uM) MUTATION: G12D. In outline: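 Mutant KRAS (5-20 nM) incubated 1 h at 25° C with test compound and 5-20 nM biotinylated KRpep-2d analogue or RAF1-RBD in 20 mM HEPES pH 7.5, 100 mM NaCl, 5 mM MgCl2, 0.01% Tween-20, 0.01% BSA.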

Usually IC50 stands for the concentration that gives 50% inhibition. For `CN1CCN(CCCC(=O)N2[C@@H]3CC[C@H]2CN(c2nc(OCC45CCCN4CCC5)nc4c(F)c(-c5cc(O)cc6ccccc56)ccc24)C3)CC1` [P-0187, 1-((1R,5S)-3-(8-fluoro-7-(3-hydroxynaphthalen-1-yl)-2-((tetrahydro-1H-pyrrolizin-7a(5H)-yl)methoxy)quinazolin-4-yl)-3,8-diazabicyclo[3.2.1]octan-8-yl)-4-(4-methylpiperazin-1-yl)butan-1-one], the IC50 in experiment [1] and in experiment [2] was 0.0001 to 10 µM each time.
For `O=C(Cc1c[nH]cn1)N1[C@@H]2CC[C@H]1CN(c1nc(OCC34CCCN3CCC4)nc3c(F)c(-c4cc(O)cc5ccccc45)ccc13)C2` [P-0188, 1-((1R,5S)-3-(8-fluoro-7-(3-hydroxynaphthalen-1-yl)-2-((tetrahydro-1H-pyrrolizin-7a(5H)-yl)methoxy)quinazolin-4-yl)-3,8-diazabicyclo[3.2.1]octan-8-yl)-2-(1H-imidazol-4-yl)ethan-1-one], the IC50 in experiment [1] and in experiment [2] was 0.0001 to 10 µM throughout.
As to `CN1CCC[C@H]1COc1nc(N2[C@@H]3CC[C@H]2CN(C(=O)CC2CCNCC2)C3)c2ccc(-c3cc(O)cc4ccccc34)cc2n1` [P-0189, 1-((1R,5S)-8-(7-(3-hydroxynaphthalen-1-yl)-2-(((S)-1-methylpyrrolidin-2-yl)methoxy)quinazolin-4-yl)-3,8-diazabicyclo[3.2.1]octan-3-yl)-2-(piperidin-4-yl)ethan-1-one], the IC50 in experiment [1] and in experiment [2] was 10 to 100 µM in each case.
As to `CN1CCC[C@H]1COc1nc(N2[C@@H]3CC[C@H]2CN(C(=O)CC2CCCNC2)C3)c2ccc(-c3cc(O)cc4ccccc34)cc2n1` (stereo partly drawn) [P-0190, 1-((1R,5S)-8-(7-(3-hydroxynaphthalen-1-yl)-2-(((S)-1-methylpyrrolidin-2-yl)methoxy)quinazolin-4-yl)-3,8-diazabicyclo[3.2.1]octan-3-yl)-2-(piperidin-3-yl)ethan-1-one], the IC50 in experiment [1] and in experiment [2] was 10 to 100 µM each time.
Take `CN1CCC[C@H]1COc1nc(N2[C@@H]3CC[C@H]2CN(C(=O)CCC2CCCCN2)C3)c2ccc(-c3cc(O)cc4ccccc34)cc2n1` (stereo partly drawn) [P-0191, 1-((1R,5S)-8-(7-(3-hydroxynaphthalen-1-yl)-2-(((S)-1-methylpyrrolidin-2-yl)methoxy)quinazolin-4-yl)-3,8-diazabicyclo[3.2.1]octan-3-yl)-3-(piperidin-2-yl)propan-1-one]: the IC50 in experiment [1] and in experiment [2] was 10 to 100 µM in each case.
As to `CN1CCC[C@H]1COc1nc(N2[C@@H]3CC[C@H]2CN(C(=O)CCC2CCCNC2)C3)c2ccc(-c3cc(O)cc4ccccc34)cc2n1` (stereo partly drawn) [P-0192, 1-((1R,5S)-8-(7-(3-hydroxynaphthalen-1-yl)-2-(((S)-1-methylpyrrolidin-2-yl)methoxy)quinazolin-4-yl)-3,8-diazabicyclo[3.2.1]octan-3-yl)-3-(piperidin-3-yl)propan-1-one], the IC50 in experiment [1] and in experiment [2] was 10 to 100 µM throughout.
For `CN1CCC[C@H]1COc1nc(N2[C@@H]3CC[C@H]2CN(C(=O)CCC2CCNCC2)C3)c2ccc(-c3cc(O)cc4ccccc34)cc2n1` [P-0193, 1-((1R,5S)-8-(7-(3-hydroxynaphthalen-1-yl)-2-(((S)-1-methylpyrrolidin-2-yl)methoxy)quinazolin-4-yl)-3,8-diazabicyclo[3.2.1]octan-3-yl)-3-(piperidin-4-yl)propan-1-one], the IC50 in experiment [1] and in experiment [2] was 10 to 100 µM each time.
Consider `CN1CCC[C@H]1COc1nc(N2[C@@H]3CC[C@H]2CN(C(=O)CCC2CNCCN2)C3)c2ccc(-c3cc(O)cc4ccccc34)cc2n1` (stereo partly drawn) [P-0194, 1-((1R,5S)-8-(7-(3-hydroxynaphthalen-1-yl)-2-(((S)-1-methylpyrrolidin-2-yl)methoxy)quinazolin-4-yl)-3,8-diazabicyclo[3.2.1]octan-3-yl)-3-(piperazin-2-yl)propan-1-one], for which the IC50 in experiment [1] and in experiment [2] was 10 to 100 µM each time.

Values taken from patent US20230081426A1, “COMPOUNDS AND METHODS FOR KRAS MODULATION AND INDICATIONS THEREFOR” (Plexxikon Inc., priority 2020, published 2023).
